1 substance from patent US8013153B2, “Substituted pyrimidine kinase inhibitors” (Janssen Pharmaceutica, N.V., priority 2006, dated 2011) can be followed below.

This data set concerns spontaneous intestinal adenoma formation. Kind of data set: C57BL/6J-APC Min-mouse model of human adenomatous polyposis coli. Particulars: 100 mg/kg orally q.d., versus vehicle-treated group. It counts as in vivo, C57BL/6J-Apc min mice. On the procedure:
The ability of Compound 50 to inhibit angiogenesis and tumor growth was tested in a spontaneous tumor model. the pre-cancerous polyp formation in the mouse model of human intestinal tumorigenesis.
Transgenic C57BL/6J-Apc min mice heterozygous for a dominant nonsense Apc mutation are highly susceptible to spontaneous intestinal adenoma formation (homozygous mice are not viable). One hundred percent of these animals will develop polyps by 12 weeks of age. This model is widely used for studying prevention of intestinal adenoma formation and is well described in the literature (Yang K, Edelmann W, Fan K, et. al. A mouse model of human familial adenomatous polyposis. J Exp Zool. 1997 15; 277(3):245-54).
Female C57BL/6J-Apc^Min mice (Jackson Laboratory, MN), 5 weeks of age, were housed (up to 10 mice per group) for a minimum of one week. Animals were then sorted into treatment groups based on body weight such that the mean body weight for the animals in each group was approximately the same. Small cohorts of animals (n=6) were sacrificed at day 1, before treatment to get a baseline number of polyps (mean polyp number at beginning of study). […]
Animals in the treated group (n=10) were dosed daily with Compound 50 at 100 mg/kg orally q.d. for one week. […] The intestine of each mouse was excised, perfused, stained (0.01% Trypan Blue) and polyps were counted under 10× magnification.

For “1-{4-[6-amino-5-(methoxyimino-methyl)-pyrimidin-4-yloxy]-2-chloro-phenyl}-3-ethyl-urea [Cpd 50]”, the “body weights at study end” value is given as “comparable”.
